Results published in PubChem BioAssay AID179 (DTP/NCI, 2004).
pEC50, pIC50: −log10 of the molar value. Several values for one entry are separate records, joined by “and”; a condition that tells them apart may be missing. Identical values can stand only once. Activity calls are given as the source filed them.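 How the source made its calls: active means compounds giving half or more protection of infected cells from virus-caused growth loss, again on retest; inactive means the rest.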

System: CEM cells HIV-1 protection, formazan growth assay
Assay: NCI AIDS Antiviral Assay
Conditions: for pIC50: measured here: growth of uninfected CEM cells
Method in brief: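 Screen of anti-HIV-1 activity in human CEM cells using a formazan-based growth measurement at five drug concentrations. Hits with 50% or greater protection were repeated, and confirmation required reproducible complete protection.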

| SMILES | pEC50 | pIC50 | outcome |
| --- | --- | --- | --- |
| CN1CN(c2ccccc2)C2(CCN(CCc3cc4ccccc4o3)CC2)C1=O | < 3.70 | 5.09 |  |
| N#Cc1ccc(/C=C/C(=O)c2ccccc2)cc1 | < 4.51 | 4.84 |  |
| Cc1[nH]c(-c2ccccc2)c(O)c1C(=O)OC12CC3CC(CC(C3)C1)C2 | < 3.70 | 4.51 |  |
| CC(=O)OC1CCC2(C)C(=CCC3C2CCC2(C)C3CC3N(c4ccccc4Cl)C32C#N)C1 (configuration not stated) | < 4.67 | < 4.67 |  |
| O=C(N/C(=C\c1ccc(F)cc1)c1nc2ccccc2[nH]1)c1ccccc1 | < 3.72 | < 3.72 |  |
| [N-]=[N+]=C(C(=O)OCC#CCOC(=O)C(=[N+]=[N-])S(=O)(=O)c1ccccc1)S(=O)(=O)c1ccccc1 | < 3.70 | 3.87 |  |
| O=C1CSC(c2ccc(Cl)cc2Cl)N1c1ccc(Oc2ccc(Cl)cc2)c(Cl)c1 (configuration not stated) | < 4.00 | 4.58 |  |
| Cc1[nH]c(=O)[nH]c(=O)c1CN1CCCCC1 | < 5.19 | < 5.19 |  |
| CCOC(=O)C(=CCC1NCCc2c1[nH]c1ccccc21)C(=O)OCC (configuration not stated) | < 4.69 | 4.92 |  |
| NC(=O)NC1C(C(=O)O)N(Cc2ccccc2)C(=O)N1Cc1ccccc1 (configuration not stated) | < 3.31 | < 3.31 |  |
| O=C1C(c2ccccc2)=[N+]([O-])c2ccccc21 |  |  | inactive |
| O=C(NC(O)C(Cl)(Cl)Cl)NC(O)C(Cl)(Cl)Cl (configuration not stated) | < 3.70 | < 3.70 |  |
| O=S(=O)(O)O | < 3.58 | 4.39 |  |
| N#C/C(=C\c1cc(Cl)cc(Cl)c1O)c1ccc([N+](=O)[O-])cc1 | < 4.00 | 4.85 |  |
| CC(C)N(C(=O)C12C3(C(=O)OC(C)(C)C)C4C5(C#N)C3C1(C(=O)OC(C)(C)C)C5C42C(=O)OC(C)(C)C)C(C)C (configuration not stated) | < 3.70 | 4.63 |  |
| CC(=O)Nc1c(C#N)c2n(c1C(=O)Nc1ccc(Cl)cc1)CCC2 | < 3.70 | < 3.70 |  |
| CC(C)(CO)NC(=O)c1cccs1 | < 3.70 | < 3.70 |  |
| CC(=O)c1cc2c(cc1C(C)C)CC[C@H]1[C@](C)(C#N)CCC[C@]21C | < 3.70 | 3.76 and 3.90 |  |
| CCCCNC(=O)Nc1c(C(N)=O)c2n(c1C(=O)OCC)CCCCC2 | < 4.30 | < 4.30 |  |
| CCC/C(Cl)=N/OC(=O)Nc1ccccc1C(F)(F)F | < 4.70 | 5.47 |  |
| CC(=O)N1c2ccccc2C(C)C1c1[nH]c2ccccc2c1C (configuration not stated) | < 3.70 | 4.52 |  |

| SMILES | pEC50 | pIC50 | outcome |
| --- | --- | --- | --- |
| NC(N)=NS(=O)(=O)c1ccc(Nc2c3ccccc3nc3ccc(C(=O)Nc4ccc(S(N)(=O)=O)cc4)cc23)cc1 | < 3.70 | < 3.70 |  |
| COC(=O)c1c2c(cc3c1CC1(Cc4cc5c(c(C)c4C1)CCC5)C3)CCC2 (configuration not stated) | < 3.70 | < 3.70 |  |
| CN(Cc1ccccc1)c1cc(=O)n(C)c(=O)[nH]1 | < 3.70 | < 3.70 |  |
| O=c1cc(-c2ccccc2)c2cc3c(=O)ccoc3cc2o1 | < 5.46 | < 5.46 |  |
| Cc1n[nH]c(=O)n1C1CC1 | < 3.70 | < 3.70 |  |
| CON1C(=O)C2(CCCCC2)C(=O)C12C=CC(C)CC2 (configuration not stated) | < 3.79 | < 3.79 |  |
| NC(=O)NCCSC1CCCCC1O (configuration not stated) | < 3.70 | < 3.70 |  |
| CC1=C(C#N)C(=O)OC1(C)C(CC(=O)c1ccccc1)c1ccccc1 (configuration not stated) | < 3.70 | 5.08 |  |
| O=C(NCCCCCCNC(=O)NC1OCC(O)C(O)C1O)NC1OCC(O)C(O)C1O (configuration not stated) |  |  | inactive |
| COc1ccc2c(c1)CCC1C3(CCCC21C=O)OCCO3 (configuration not stated) | < 3.78 | < 3.78 |  |
| CCN(CCO)CC1COc2ccccc2O1 (configuration not stated) | < 3.70 | < 3.70 |  |
| CCOC(=O)CC(=O)NC1CC2CCC1(C)C2(C)C (configuration not stated) | < 3.70 | < 3.70 |  |
| COc1ccc(-c2cc(-c3ccco3)c(C#N)c(=O)n2C2OC(COC(C)=O)C(OC(C)=O)C(OC(C)=O)C2OC(C)=O)cc1 (configuration not stated) | < 4.94 | < 4.94 |  |
| Cc1nc2c(ccc3[nH]c4ccccc4c32)s1 |  |  | inactive |
| O=C1COC(c2ccccc2O)=NN1CCCl | < 3.85 | < 3.85 |  |
| CCCCCCCCCCCCCCCCCCCCCCCCCCCCCC=C(c1cc(Cl)c(O)c(C(=O)O)c1)c1cc(Cl)c(O)c(C(=O)O)c1 | 4.91 | 3.65 |  |
| Cc1ccc(/C([O-])=C(\C(=S)Nc2cccc(C)c2)[n+]2ccccc2)cc1 |  |  | inactive |
| O=C1C/C(Br)=C\c2ccccc2-c2ccccc21 | < 5.95 | 6.41 |  |
| COC(=O)Cc1nn2c(nc1=O)sc1ccc3ccccc3c12 | < 4.16 | < 4.16 |  |
| COC(=O)c1cccc(COC(=O)c2cc(C(=CCC[C@H]3CC[C@@]4(C)[C@@H](CC[C@@H]5[C@@H]4CC[C@]4(C)[C@@H]([C@H](C)CCCC(C)C)CC[C@@H]54)C3)c3cc(Cl)c(OCc4cccc(C(=O)OC)c4)c(C(=O)OCc4cccc(C(=O)OC)c4)c3)cc(Cl)c2OCc2cccc(C(=O)OC)c2)c1 | < 3.70 | < 3.70 |  |
| O=c1oc2ccccc2c(O)c1C(c1ccc2c(c1)OCO2)c1c(O)c2ccccc2oc1=O | < 3.70 | 4.12 |  |

| SMILES | pEC50 | pIC50 | outcome |
| --- | --- | --- | --- |
| COc1ccc(Cc2cc(N=O)c(C)cc2O)cc1 | < 3.70 | 4.90 |  |
| O/N=C\c1c2c(cc3c1CCC3)CCC2 | < 3.70 | < 3.70 |  |
| CCN(CC)CCCNc1ncc(C)c2c1c1ccc3c(O)cccc3c1n2C | < 4.88 | 6.62 |  |
| S=c1[nH]nc(Cc2ccccc2)c(=S)[nH]1 |  |  | inactive |
| O=[N+]([O-])c1cccc2nc3ccccc3c(NCCCCNc3c4ccccc4nc4cccc([N+](=O)[O-])c34)c12 | < 7.00 | 7.79 |  |
| CCCCCCCCCCCCCCCCCCOc1ccc2c(c1)-c1nc-2nc2[nH]c(nc3nc(nc4[nH]c(n1)c1cc(OCCCCCCCCCCCCCCCCCC)ccc41)-c1ccc(OCCCCCCCCCCCCCCCCCC)cc1-3)c1cc(OCCCCCCCCCCCCCCCCCC)ccc21 | < 5.07 | < 5.07 |  |
| COc1ccc(C(O)C/[N+]([O-])=C/c2ncc([N+](=O)[O-])n2C)cc1 (configuration not stated) |  |  | inactive |
| CC1CC(c2ccc(Cl)c(Cl)c2)=Nc2ccccc2S1 (configuration not stated) | < 5.21 | < 5.21 |  |
| CC(OC(C)(C)C)C(NC(=O)C(Cc1ccccc1)NC(=O)C(NC(=O)C(CCCCNC(=O)OC(C)(C)C)NC(=O)C(Cc1c[nH]c2ccccc12)C(=O)NC(Cc1ccccc1)NC(=O)C(Cc1ccccc1)NC(=O)C(CC(N)=O)NC(=O)C(N)CCCCNC(=O)OC(C)(C)C)C(C)OC(C)(C)C)C(=O)NC(COC(C)(C)C)C(=O)NC(CSC(C)(C)C)C(=O)OC(C)(C)C (configuration not stated) | 4.06 | < 3.70 |  |
| COC1CCC(CO)OO1 (configuration not stated) | < 3.70 | 5.51 |  |
| Cc1ccc(Oc2ccc(C)cc2N)cc1 |  |  | inactive |
| O=C(Nc1ccccc1[N+](=O)[O-])/C(=N/Nc1cccc(Cl)c1)c1c(O)c2ccccc2oc1=O | < 4.27 | < 4.27 |  |
| Cc1ccn2c(=O)cc(CN3CCOCC3)nc2c1 | < 3.70 | < 3.70 |  |
| Cc1ccccc1N=Nc1c(-c2ccccc2)nn(C(=O)CC(=O)Nc2cccc(Cl)c2)c1-c1ccccc1 | < 4.60 | < 4.60 |  |
| O=[N+]([O-])c1cc([N+](=O)[O-])c(/C=C/c2ccc(Cl)c(Cl)c2)cc1/C=C/c1ccc(Cl)c(Cl)c1 | < 4.71 | < 4.71 |  |
| CCCCCCCCCCCCCCCCC(=O)NCC(=O)NCC(=O)NC(Cc1ccccc1)C(=O)Oc1ccc([N+](=O)[O-])cc1 (configuration not stated) | < 3.70 | 4.74 |  |
| O=C(NNC(=S)Nc1ccccc1)C12CC3CC(CC(C3)C1)C2 | < 3.70 | 4.46 |  |
| Cc1ccc2c(c1)C(=O)/C(=N/Nc1ccc(Cl)cc1)CCO2 | < 3.70 | 3.96 |  |
| Cn1c(=O)cc(NCc2ccc(Cl)cc2)[nH]c1=O | < 3.70 | 3.71 |  |
| Cc1[nH]n(C2=NCCN2)c(=O)c1C | < 3.70 | < 3.70 |  |
| COc1cc(/C=C2/CCS(=O)(=O)c3ccc(C)cc3C2=O)cc(OC)c1OC | < 3.70 | 5.43 |  |

| SMILES | pEC50 | pIC50 | outcome |
| --- | --- | --- | --- |
| Cc1n(Cc2ccccc2)nc2sc(N)n[n+]12 | < 3.70 | 4.19 |  |
| CC(=O)Nc1ccc(C(=O)NN2C(=O)C(Cl)/C2=C/c2ccco2)cc1 (configuration not stated) |  |  | inactive |
| Cc1nn(C)pc1P(C)(=S)n1nc(N(C)C)np1 (configuration not stated) | < 3.11 | < 3.11 |  |
| COc1ccc2c(c1OC)C(C=C(c1ccccc1)c1ccccc1)CN(C)C2 (configuration not stated) | < 4.03 | 4.80 |  |
| Cc1c(NC(=S)Nc2ccc([N+](=O)[O-])cc2)c(=O)n(-c2ccccc2)n1C | < 3.70 | < 3.70 |  |
| CCCn1c(SC)nc(COC(=O)NC)c1COC(=O)NC | < 3.70 | < 3.70 |  |
| c1ccc2nc(SSc3ccc4ccccc4n3)ccc2c1 | < 3.70 | 4.62 |  |
| COc1cc2c(cc1OC)C1C3CCCCC3CCN1CC2 (configuration not stated) | < 3.70 | 3.86 |  |
| C=CCOc1ccc(/C(N=Nc2ccc(Cl)cc2)=N/NC(=O)c2ccccc2)cc1OC | < 3.70 | 4.06 |  |
| O=P(O)(O)CN1CCN(CP(=O)(O)O)CCN(CP(=O)(O)O)CCN(CP(=O)(O)O)CC1 | < 4.00 | 4.69 |  |
| Cn1cc2ccccc2c1-c1nc(F)nc(Oc2ccc3c(c2)CC[C@@H]2C3CC[C@@]3(C)C2CC[C@@H]3O)n1 (some centres not stated) | < 5.26 | < 5.26 |  |
| CCN(CC)CCCNc1c2cc(OC)ccc2nc2cccc([N+](=O)[O-])c12 | < 5.70 | 7.39 |  |
| O=C(O)[C@@H]1CCC(=O)N1C(c1ccc2c(c1)OCO2)c1ccc2c(c1)OCO2 | < 3.70 | < 3.70 |  |
| C[n+]1c2ccccc2c(NC(CS)C(=O)O)c2ccccc21 (configuration not stated) |  |  | inactive |
| O=C1NC(N2CCCCC2)=N/C1=C\c1ccco1 | < 3.70 | < 3.70 |  |
| C=CCCCCCCCCC(=O)NC(C)C(C)(C)C (configuration not stated) | < 3.70 | 4.13 |  |
| CN(N=O)C(=O)NC(CCCCNC(=O)OCc1ccccc1)C(=O)OCc1ccccc1 (configuration not stated) | < 4.66 | < 4.66 |  |
| CCCCCCCCCCCC(=O)OC[C@H](C[As](=O)(O)O)OC(=O)CCCCCCCCCCC | < 3.70 | 5.38 |  |
| C=C(C)C1Cc2c(cc3c(c2O)c(=O)c2ccccc2n3C)O1 (configuration not stated) | < 3.70 | 5.93 |  |
| O=C1c2ccccc2C(=O)c2c1oc1cc(O)c(Cl)cc21 | < 4.78 | < 4.78 |  |
